{"source": "patent US7319094B2", "about": "“Increased and sustained in vivo gene expression using a nucleic acid, histone and amphipathic compound composition” (Rhode Island Hospital, priority 2001, dated 2008)", "format_in_all_cases": "cell-based, human", "key": {"p21/Waf1": {"test_system": "p21/Waf1", "experiment": "p21/Waf1 expression, Western blot / MICE assay", "settings": "PNET2 cells induced to express AD7c-NTP, growth factor stimulated", "source_text": "Standard Western blot assays wew used to measure cellular levels of p53, Bcl-2, p21/Waf1, phospho-tau, tau, c-fos, NTP, and activated (phosphorylated) forms of Erk mitogen activated protein (MAP) kinase, amino-terminal c-jun-activated kinase (pJNK), and p38/HOG1. Immunoprecipitation followed by Western blot analysis was used to measure p85 subunit associated with IRS1. For Western blot analysis of p53 Bcl-2, phospho-tau, tau, c-fos, and NTP, the cells were lysed in ice cold radioimmunoprecipitation assay (RIPA) buffer supplemented with protease and phosphatase inhibitors. […] Protein concentrations were measured using the BCA assay (Pierce, Rockford, Ill.). Samples containing 60 μg of protein were fractionated by sodium dodecyl sulfate polyacrylamide gel electrophoresis (SDS-PAGE), then transferred to PVDF membranes, and analyzed by Western immunoblotting. Immunoreactivity was detected with horseradish peroxidase conjugated secondary IgG and PicoWest enhanced chemiluminescence reagents (Pierce Chemical Company, Rockford, Ill.). CAT activity was measured using known methods.\nThe MICE assay is known in the art (e.g., as described by de la Monte et al., 1999, Biotechniques 26:107301076). […] Immunoreactivity was detected using horseradish peroxidase conjugated secondary antibody (Pierce, Rockford, Ill.) and the TMB soluble peroxidase substrate (Pierce, Rockford, Ill.). […]"}, "Bcl-2": {"test_system": "Bcl-2", "experiment": "Bcl-2 expression, Western blot / MICE assay", "settings": "PNET2 cells induced to express AD7c-NTP, growth factor stimulated", "source_text": "(§1) Standard Western blot assays wew used to measure cellular levels of p53, Bcl-2, p21/Waf1, phospho-tau, tau, c-fos, NTP, and activated (phosphorylated) forms of Erk mitogen activated protein (MAP) kinase, amino-terminal c-jun-activated kinase (pJNK), and p38/HOG1. Immunoprecipitation followed by Western blot analysis was used to measure p85 subunit associated with IRS1. For Western blot analysis of p53 Bcl-2, phospho-tau, tau, c-fos, and NTP, the cells were lysed in ice cold radioimmunoprecipitation assay (RIPA) buffer supplemented with protease and phosphatase inhibitors. For the immunoprecipitation studies, Western blot analysis of phospho-Erk, pJNK, and p38, and the PI3 kinase assays, the cells were harvested in Triton lysis buffer supplemented with protease and phosphatase inhibitors. Protein concentrations were measured using the BCA assay (Pierce, Rockford, Ill.). Samples containing 60 μg of protein were fractionated by sodium dodecyl sulfate polyacrylamide gel electrophoresis (SDS-PAGE), then transferred to PVDF membranes, and analyzed by Western immunoblotting. Immunoreactivity was detected with horseradish peroxidase conjugated secondary IgG and PicoWest enhanced chemiluminescence reagents (Pierce Chemical Company, Rockford, Ill.). CAT activity was measured using known methods.\nThe MICE assay is known in the art (e.g., as described by de la Monte et al., 1999, Biotechniques 26:107301076). The assay is a rapid and sensitive method for quantifying immunoreactivity in 96-well micro-cultures and combines the advantages of the enzyme-linked immunosorbant assay with immunocytochemical staining to permit sensitive in situ quantification of protein expression with values normalized to cell density. […] Immunoreactivity was detected using horseradish peroxidase conjugated secondary antibody (Pierce, Rockford, Ill.) and the TMB soluble peroxidase substrate (Pierce, Rockford, Ill.). Absorbances were measured at 450 nm using a Spectracount plate reader. […]"}, "phospho-Erk MAPK": {"test_system": "phospho-Erk MAPK", "experiment": "Growth factor stimulated phospho-Erk MAPK, Western blot", "source_text": "as §1\nThe potential mechanisms by which the differential effects of insulin, IGF1 and PDGF might occur were explored by examining pathways, which mediate PNET2 neuronal apoptosis and neuritic sprouting. […] Western blot analysis was performed with cell lysates obtained from cultures stimulated with insulin, IGF1, or PDGF for 0-30 minutes or 24 hours with equivalent protein loading (60 μg/sample). The membranes were probed using antibodies to Erk, phospho-Erk, Jun, and phospho-JNK. […] In contrast, after 24 hours of AD7c-NTP gene induction and growth factor stimulation, high levels of phospho-Erk MAPK were detected in the IGF-1 and PDGF-stimulated cultures, but not in the serum-starved or insulin-stimulated cultures. […] In contrast, the levels of c-fos transcription factor were equally expressed after 24 hours IPTG induction of AD7c-NTP expression and either serum starvation or stimulation with insulin, IGF1 or PDGF."}, "[1]": {"test_system": "IRS-1-associated PI3 kinase", "experiment": "IRS-1-associated PI3 kinase activity", "settings": "3 mM IPTG-induced cultures, 30 minutes of stimulation", "protocol": "The cells were harvested in Triton lysis buffer supplemented with protease and phosphatase inhibitors. Total PI3K was immunoprecipitated from 500 μg protein in cell lysates using rabbit polyclonal antibodies to the p85 subunit of PI3K and Protein A sepharose. The immunoprecipitants were incubated for 5 minutes at room temperature with 10 μg of sonicated phosphatidylinositol in HEPES buffer (200 mM HEPES, 4 mM EGTA, 4 mM sodium phosphate, pH 7.0). Reactions were initiated by the addition of 5 μCi [α^32p] ATP, 15 mM MgCl2, 150 mM ATP, 1.5 mM Tris-HCl, pH 7.4, and 15 mM NaCl. […] Phosphorylated lipids were analyzed by thin layer chromatography using gel plates pre-coated with 1% oxalate (Merck, White House Station, N.J.). PI3K activity was measured with a phosphorimager.\nPI3 kinase is an important mediator of neuronal survival. […] Since insulin and IGF-1 can activate PI3 kinase through the insulin-receptor substrate-1 (IRS-1) or through IRS-1-independent pathways, both IRS1-associated PI3 kinase and total PI3 kinase activities were measured. […] Levels of PI3 kinase activity were measured in anti-phospho-tyrosine (PY) immunoprecipitates. […] Similarly, PI3 kinase activity was readily detected in the PY immunoprecipitates prepared with cells stimulated with insulin or PDGF."}}, "note": "“Also recorded” adds a separate entry of the source.", "data": [{"substance": "insulin: Human insulin purchased from Novagen", "values": [{"measurement": "p21/Waf1 level", "setting": "p21/Waf1", "result": "increased levels of p21/Waf1; also recorded: significantly increased levels"}, {"measurement": "Bcl-2 level", "setting": "Bcl-2", "result": "virtually undetectable Bcl-2 expression; also recorded: reduced levels"}, {"measurement": "phospho-Erk MAPK level, short-term stimulation", "setting": "phospho-Erk MAPK; 0-30 minutes stimulation", "result": "increased levels"}, {"measurement": "phospho-Erk MAPK level, 24 hours", "setting": "phospho-Erk MAPK; 24 hours of AD7c-NTP induction and growth factor stimulation", "result": "reduced levels"}, {"measurement": "IRS-1-associated PI3 kinase activity", "setting": "[1]", "result": "sharply increased"}]}]}
